What was measured:
Assay type in all cases: biochemical
TEC = molecular target: T1, TEC (Homo sapiens, UniProt P42680); assay: Inhibition of a panel of kinases, in vitro HotSpot kinase assay: TEC; details: Table 15, C compounds; 1 μM ATP
T1 sequence (P42680 1-631): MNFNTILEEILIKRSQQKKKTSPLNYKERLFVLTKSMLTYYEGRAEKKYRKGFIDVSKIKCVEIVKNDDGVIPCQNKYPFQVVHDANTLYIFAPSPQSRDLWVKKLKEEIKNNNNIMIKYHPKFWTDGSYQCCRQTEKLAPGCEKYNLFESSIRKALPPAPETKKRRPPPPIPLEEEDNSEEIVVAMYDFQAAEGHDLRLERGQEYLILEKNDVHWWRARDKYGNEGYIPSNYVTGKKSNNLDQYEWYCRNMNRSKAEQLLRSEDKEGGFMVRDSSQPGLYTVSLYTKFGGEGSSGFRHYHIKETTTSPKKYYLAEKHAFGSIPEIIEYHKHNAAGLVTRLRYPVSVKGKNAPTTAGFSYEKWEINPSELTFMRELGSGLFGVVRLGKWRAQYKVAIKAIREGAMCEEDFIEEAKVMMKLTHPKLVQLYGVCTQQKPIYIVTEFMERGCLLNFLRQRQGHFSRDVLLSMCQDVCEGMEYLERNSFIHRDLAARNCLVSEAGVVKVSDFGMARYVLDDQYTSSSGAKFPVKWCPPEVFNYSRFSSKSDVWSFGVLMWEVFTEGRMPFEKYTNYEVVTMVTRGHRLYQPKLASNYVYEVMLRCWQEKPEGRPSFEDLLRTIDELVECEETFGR
Experimental: (§1) The degree of inhibition of a panel of kinases is determined using the in vitro HotSpot kinase assay (purified enzymes, ^33P-ATP, an appropriate substrate and 1 μM ATP).

EGFR = EGFR (Homo sapiens, UniProt P00533); assay: Inhibition of a panel of kinases, in vitro HotSpot kinase assay: EGFR; details: Table 15, C compounds; 1 μM ATP
Experimental: as §1

BTK-WT = molecular target: T2, BTK-WT (Homo sapiens, UniProt Q06187); assay: Btk in vitro inhibitory activity (one of Method A TR-FRET, Method B electrophoretic mobility shift, Method C radiometric filter binding); details: Table 15, C compounds; read-out: IC50 BTK-WT
T2 construct: purified from insect cells as a full-length construct containing an N-terminal 6X-His tag; His6 (N); made in house; host or cells: insect cells (baculovirus Sf21 in Method B)

TXK = molecular target: T3, TXK (Homo sapiens, UniProt P42681); assay: Inhibition of a panel of kinases, in vitro HotSpot kinase assay: TXK; details: Table 15, C compounds; 1 μM ATP
T3 sequence (P42681 1-527): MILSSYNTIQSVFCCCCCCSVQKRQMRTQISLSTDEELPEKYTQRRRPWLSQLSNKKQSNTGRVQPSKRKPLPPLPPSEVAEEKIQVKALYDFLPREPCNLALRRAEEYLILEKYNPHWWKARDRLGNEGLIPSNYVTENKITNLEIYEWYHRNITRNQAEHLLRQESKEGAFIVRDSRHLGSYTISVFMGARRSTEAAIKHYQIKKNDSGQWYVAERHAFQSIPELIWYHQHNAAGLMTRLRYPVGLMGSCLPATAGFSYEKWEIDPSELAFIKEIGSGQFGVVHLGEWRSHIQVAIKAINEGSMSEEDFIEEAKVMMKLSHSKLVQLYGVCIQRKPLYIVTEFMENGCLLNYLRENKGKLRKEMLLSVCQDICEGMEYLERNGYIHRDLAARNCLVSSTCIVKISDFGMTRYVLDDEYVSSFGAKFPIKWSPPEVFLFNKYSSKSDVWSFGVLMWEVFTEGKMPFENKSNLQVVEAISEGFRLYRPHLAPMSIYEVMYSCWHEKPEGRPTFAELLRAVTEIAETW
Experimental: as §1

ITK = molecular target: T4, ITK (Homo sapiens, UniProt Q08881); assay: Inhibition of a panel of kinases, in vitro HotSpot kinase assay: ITK; details: Table 15, C compounds; 1 μM ATP
T4 sequence (Q08881 1-620): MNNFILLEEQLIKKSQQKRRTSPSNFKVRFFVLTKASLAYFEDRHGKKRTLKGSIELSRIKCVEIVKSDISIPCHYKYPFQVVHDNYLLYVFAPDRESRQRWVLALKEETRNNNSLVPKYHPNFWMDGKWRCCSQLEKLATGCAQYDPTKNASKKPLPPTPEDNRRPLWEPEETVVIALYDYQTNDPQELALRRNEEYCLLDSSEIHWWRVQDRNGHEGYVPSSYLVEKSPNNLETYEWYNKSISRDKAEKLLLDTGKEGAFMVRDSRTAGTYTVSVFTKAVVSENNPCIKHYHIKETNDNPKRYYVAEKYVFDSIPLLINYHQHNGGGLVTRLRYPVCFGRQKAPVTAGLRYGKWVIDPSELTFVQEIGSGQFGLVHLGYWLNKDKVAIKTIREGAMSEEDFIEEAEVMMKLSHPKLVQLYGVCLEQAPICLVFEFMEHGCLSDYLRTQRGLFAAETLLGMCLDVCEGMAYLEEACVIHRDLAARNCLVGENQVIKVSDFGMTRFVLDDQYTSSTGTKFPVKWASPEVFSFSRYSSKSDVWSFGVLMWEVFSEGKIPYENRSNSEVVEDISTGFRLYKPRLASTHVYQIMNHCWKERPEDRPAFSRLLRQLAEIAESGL
Experimental: as §1

T2 sequence (Q06187 whole entry): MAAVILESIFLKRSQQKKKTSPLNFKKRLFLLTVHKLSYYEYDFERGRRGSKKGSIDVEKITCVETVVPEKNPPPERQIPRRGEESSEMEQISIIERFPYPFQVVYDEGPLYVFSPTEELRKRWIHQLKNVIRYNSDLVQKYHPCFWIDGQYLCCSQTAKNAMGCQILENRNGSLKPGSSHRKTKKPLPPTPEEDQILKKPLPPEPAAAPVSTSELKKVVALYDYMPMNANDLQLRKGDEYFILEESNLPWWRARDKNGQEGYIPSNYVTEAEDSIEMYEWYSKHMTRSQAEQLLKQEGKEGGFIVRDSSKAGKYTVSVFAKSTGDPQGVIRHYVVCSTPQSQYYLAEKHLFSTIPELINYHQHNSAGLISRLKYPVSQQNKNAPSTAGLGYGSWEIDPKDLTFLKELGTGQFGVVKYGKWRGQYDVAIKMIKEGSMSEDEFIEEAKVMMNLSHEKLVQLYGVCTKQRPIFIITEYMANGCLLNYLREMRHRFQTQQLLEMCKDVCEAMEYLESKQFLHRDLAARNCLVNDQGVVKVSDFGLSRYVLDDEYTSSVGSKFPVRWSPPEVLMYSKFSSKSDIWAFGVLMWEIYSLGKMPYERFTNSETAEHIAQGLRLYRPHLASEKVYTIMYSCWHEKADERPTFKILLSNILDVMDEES
Chain of EGFR (P00533 25-1210): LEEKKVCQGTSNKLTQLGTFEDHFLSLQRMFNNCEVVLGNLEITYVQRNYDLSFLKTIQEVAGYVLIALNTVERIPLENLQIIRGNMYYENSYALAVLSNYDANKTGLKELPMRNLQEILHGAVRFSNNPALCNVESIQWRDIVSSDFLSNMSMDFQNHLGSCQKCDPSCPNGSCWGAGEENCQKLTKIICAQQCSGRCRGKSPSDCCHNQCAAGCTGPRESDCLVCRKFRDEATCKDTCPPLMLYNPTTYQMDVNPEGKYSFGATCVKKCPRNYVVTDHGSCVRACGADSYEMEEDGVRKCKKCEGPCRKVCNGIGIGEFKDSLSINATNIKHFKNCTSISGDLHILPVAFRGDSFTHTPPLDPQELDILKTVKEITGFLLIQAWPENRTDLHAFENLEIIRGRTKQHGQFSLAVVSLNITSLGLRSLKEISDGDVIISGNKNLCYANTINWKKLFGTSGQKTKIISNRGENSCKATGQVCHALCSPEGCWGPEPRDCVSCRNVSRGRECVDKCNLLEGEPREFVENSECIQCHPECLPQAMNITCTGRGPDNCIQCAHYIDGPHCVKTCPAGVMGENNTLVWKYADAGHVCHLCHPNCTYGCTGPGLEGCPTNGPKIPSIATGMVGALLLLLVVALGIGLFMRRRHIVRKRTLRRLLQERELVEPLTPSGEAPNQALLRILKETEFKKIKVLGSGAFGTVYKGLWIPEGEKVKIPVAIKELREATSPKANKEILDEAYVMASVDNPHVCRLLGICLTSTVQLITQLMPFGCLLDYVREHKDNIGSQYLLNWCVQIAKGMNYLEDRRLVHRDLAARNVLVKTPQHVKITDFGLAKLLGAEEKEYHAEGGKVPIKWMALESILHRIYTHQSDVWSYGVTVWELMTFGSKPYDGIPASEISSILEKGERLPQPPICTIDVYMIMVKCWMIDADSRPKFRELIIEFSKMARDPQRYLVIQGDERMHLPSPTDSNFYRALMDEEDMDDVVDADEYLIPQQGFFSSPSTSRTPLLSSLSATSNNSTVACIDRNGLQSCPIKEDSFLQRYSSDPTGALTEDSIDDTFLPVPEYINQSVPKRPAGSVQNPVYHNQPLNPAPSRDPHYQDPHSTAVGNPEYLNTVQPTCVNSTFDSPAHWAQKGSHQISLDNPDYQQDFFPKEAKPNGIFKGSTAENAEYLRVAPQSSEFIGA

Row | Structure (SMILES) | IC50 (TEC) [µM] | IC50 (EGFR) [µM] | IC50 (BTK-WT) [µM] | IC50 (TXK) [µM] | IC50 (ITK) [µM]
1 | C=CC(=O)N1CCC[C@@H](Nc2nnc(C(N)=O)c(Nc3ccc(-c4ncco4)cc3)n2)C1 [Example C-51, (R)-3-(1-acryloylpiperidin-3-ylamino)-5-(4-(oxazol-2-yl)phenylamino)-1,2,4-triazine-6-carboxamide] | ≤ 0.01 | ≤ 0.01 | ≤ 0.01 | ≤ 0.01 | 0.01 to 0.1
2 | C=CC(=O)N1CCC[C@@H](Nc2nnc(C(N)=O)c(Nc3ccc(N4CCOCC4=O)cc3)n2)C1 [Example C-76, (R)-3-(1-acryloylpiperidin-3-ylamino)-5-(4-(3-oxomorpholino)phenyl-amino)-1,2,4-triazine-6-carboxamide] | ≤ 0.01 | 0.01 to 0.1 | ≤ 0.01 | ≤ 0.01 | ≤ 0.01
3 | C=CC(=O)N1CCC[C@@H](Nc2nnc(C(N)=O)c(Nc3cccc(-n4nccn4)c3)n2)C1 [Example C-75, (R)-5-(3-(2H-1,2,3-triazol-2-yl)phenylamino)-3-(1-acryloylpiperidin-3-ylamino)-1,2,4-triazine-6-carboxamide] | ≤ 0.01 | 0.01 to 0.1 | ≤ 0.01 | ≤ 0.01 | 0.01 to 0.1
4 | C=CC(=O)N1CCC[C@@H](Nc2nnc(C(N)=O)c(Nc3cncc(F)c3)n2)C1 [Example C-69, (R)-3-(1-acryloylpiperidin-3-ylamino)-5-(5-fluoropyridin-3-ylamino)-1,2,4-triazine-6-carboxamide] | ≤ 0.01 |  | ≤ 0.01 | ≤ 0.01 | 0.1 to 1
5 | C=CC(=O)N1CC[C@@H](N(C)c2cnc(C(N)=O)c(Nc3ccc(C4(C)CCN(C5CC5)CC4)cc3)n2)C1 [Example C-65, (R)-5-((1-acryloylpyrrolidin-3-yl)(methyl)amino)-3-(4-(1-cyclopropyl-4-methylpiperidin-4-yl)phenylamino) pyrazine-2-carboxamide] | ≤ 0.01 |  | ≤ 0.01 | ≤ 0.01 | ≤ 0.01
6 | C=CC(=O)N1CCC[C@@H](Nc2nnc(C(N)=O)c(Nc3ccc4ncccc4c3)n2)C1 [Example C-82, (R)-3-(1-acryloylpiperidin-3-ylamino)-5-(quinolin-6-ylamino)-1,2,4-triazine-6-carboxamide] | ≤ 0.01 |  | ≤ 0.01 | ≤ 0.01 | ≤ 0.01

Other lines, results leading:

Row | IC50 (TEC) [µM] | IC50 (EGFR) [µM] | IC50 (BTK-WT) [µM] | IC50 (TXK) [µM] | IC50 (ITK) [µM] | Structure (SMILES)
7 | ≤ 0.01 | ≤ 0.01 | ≤ 0.01 | ≤ 0.01 | 0.01 to 0.1 | C=CC(=O)N1CCC[C@@H](Nc2nnc(C(N)=O)c(Nc3ccc(-c4nccs4)cc3)n2)C1 [Example C-77, (R)-3-(1-acryloylpiperidin-3-ylamino)-5-(4-(thiazol-2-yl)phenylamino)-1,2,4-triazine-6-carboxamide]
8 | ≤ 0.01 | 0.01 to 0.1 | ≤ 0.01 | ≤ 0.01 | 0.01 to 0.1 | C=CC(=O)N1CCC[C@@H](Nc2nnc(C(N)=O)c(Nc3cccc(-c4ncccn4)c3)n2)C1 [Example C-71, (R)-3-(1-acryloylpiperidin-3-ylamino)-5-(3-(pyrimidin-2-yl)phenylamino)-1,2,4-triazine-6-carboxamide]
9 | ≤ 0.01 | ≤ 0.01 | ≤ 0.01 | ≤ 0.01 | ≤ 0.01 | C=CC(=O)N1CCC[C@@H](Nc2nnc(C(N)=O)c(Nc3ccc(S(C)(=O)=O)cc3)n2)C1 [Example C-59, (R)-3-(1-acryloylpiperidin-3-ylamino)-5-(4-(methylsulfonyl)phenyl-amino)-1,2,4-triazine-6-carboxamide]
10 | ≤ 0.01 | ≤ 0.01 | ≤ 0.01 | ≤ 0.01 | 0.01 to 0.1 | C=CC(=O)N1CCC[C@@H](Nc2nnc(C(N)=O)c(Nc3ccc(-c4nn[nH]n4)cc3)n2)C1 [Example C-78, (R)-5-(4-(2H-tetrazol-5-yl)phenylamino)-3-(1-acryloylpiperidin-3-ylamino)-1,2,4-triazine-6-carboxamide]
11 | ≤ 0.01 | ≤ 0.01 | ≤ 0.01 | ≤ 0.01 | ≤ 0.01 | C=CC(=O)N1CCC[C@@H](Nc2nnc(C(N)=O)c(Nc3ccc(C4(C#N)CCCC4)cc3)n2)C1 [Example C-58, (R)-3-(1-acryloylpiperidin-3-ylamino)-5-(4-(1-cyanocyclopentyl)phenylamino)-1,2,4-triazine-6-carboxamide]
